Patent US11369644B2, “Microbial consortia” (priority 2018, dated 2022)
“And” between values parts separate entries of the source, which are not always exact repeats. Identical values can stand only once. Positions of bridges follow the written chain, without caps; N, C: chain ends. Non-standard residues stand in square brackets, D forms with d. Residues, ends and D or L forms follow the SMILES beside them. *: point of attachment. Ileψ(thiazoline)Cys = CC[C@H](C)[C@H](N)C1=N[C@H](C(=O)*)CS1; dOrn = NCCC[C@@H](N)C(=O)O

What was measured:
FP-ST38 = experiment: Kirby-Bauer disk diffusion antibiotic susceptibility testing of FP-ST38; format: cell-based, Faecalibacterium prausnitzii; settings: FP-ST38 susceptible
Description: Antibiotic susceptibility was determined by standard Kirby-Bauer disk diffusion testing. FP-ST38 is susceptible to the following antibiotics (cm=zone of inhibition): amoxicillin/clavulanic acid (2.5 cm), ceftriaxone (2 cm), tetracycline (5 cm), amikacin (2 cm), and bacitracin (3.4 cm).

LC-ST100 = experiment: Kirby-Bauer disk diffusion antibiotic susceptibility testing of LC-ST100; format: cell-based, Lactobacillus crispatus; settings: LC-ST100 susceptible
Description: Antibiotic susceptibility was determined by standard Kirby-Bauer disk diffusion testing. LC-ST100 is susceptible to the following antibiotics (cm=zone of inhibition): azithromycin (3.5 cm), amoxicillin/clavulanic acid (5 cm), clindamycin (4 cm), vancomycin (3.8 cm), ceftriaxone (3.5 cm), tetracycline (4.2 cm), ampicillin (4 cm), bacitracin (2.5 cm).

Ca. glabrata DSM 11226 = experiment: Disk diffusion test for antimicrobial activity (DIN 58940-3) against Ca. glabrata; format: cell-based; settings: test strain 2 (Ca. glabrata DSM 11226); positive control 2 μg Cycloheximide/disc; 24 h at 25° C.; disk diameter = 6 mm
Description: (§1) Generally, all samples were provided in lyophilized from. Subsets of each sample were suspended in solvent for analysis by LC/MS and GC/MS. Following these analyses, further subsets of each sample were extracted and fractionated (to enrich the medium polar range). Fractions were analyzed by LC/MS. Cell extracts were analyzed in a bioassay against Candida sp. and Rhodotorula sp. in a disk diffusion assay at 3 concentrations.
(§2) Preparative Cell Extraction. Lyophilized cells were extracted prior to fractionation/bio assay to remove cell wall debris. The cells were adjusted to a final concentration of 50 mg/mL (Table 9) and sonicated for 15 min followed by vortexing for 2 min and a second sonication step of 15 min. Afterwards, 10 mL of the suspension were transferred to another vial an centrifuged at 10,000 RCF for 5 min. The supernatant was transferred to a new vial.
(§3) Disk diffusion test. Disk diffusion tests for antimicrobial activity were prepared according to DIN 58940-3 (DIN-Taschenbuch 222, 5. Edition) using the strains 00549fBCD000864 (Rho. glutinis, test strain #1) DSM 70821 and 00539fDSM011226 (Ca. glabrata, test strain #2) DSM 11226. […]
(§4) The test strains were diluted to 1.000.000 cfu/mL using saline solution. […] After 24 h the zone of inhibition was measured and recorded in Table 10 below.

Rho. glutinis DSM 70821 = experiment: Disk diffusion test for antimicrobial activity (DIN 58940-3) against Rho. glutinis; format: cell-based; settings: test strain 1 (Rho. glutinis DSM 70821); positive control 2 μg Cycloheximide/disc; 24 h at 25° C.; disk diameter = 6 mm
Description: as §1, §2, §3, §4

AM-ST7 = experiment: Kirby-Bauer disk diffusion antibiotic susceptibility testing of AM-ST7; format: cell-based, Akkermansia muciniphila; settings: AM-ST7 susceptible
Description: Antibiotic susceptibility was then determined by standard Kirby-Bauer disk diffusion testing. AM-ST7 was susceptible to the following antibiotics (cm=zone of inhibition): azithromycin (2.5 cm), amoxicillin/clavulanic acid (4 cm), vancomycin (1.5 cm), tetracycline (3 cm), bacitracin (2 cm), and levofloxacin (1.2 cm).

F. prausnitzii ST38 = experiment: Antibiotic resistance by broth solution method (MIC), F. prausnitzii ST38; format: cell-based, Faecalibacterium prausnitzii
Description: (§5) Antibiotic resistance in this example was determined using the broth solution method.
(§6) Antibiotic resistance in this example was determined using the broth solution method. This procedure involved preparing two-fold dilutions of antibiotics (e.g., 1, 2, 4, 8, and 16 μg/mL) in a liquid growth medium dispensed in test tubes. The antibiotic-containing tubes were inoculated with a standardized bacterial suspension of about 1-5×10^5 CFU/mL. Following overnight incubation at 37° C., the tubes were examined for visible bacterial growth as evidenced by turbidity. The lowest concentration of antibiotic that prevented growth represented the minimal inhibitory concentration (MIC).

A. muciniphila ST7 = experiment: Antibiotic resistance by broth solution method (MIC), A. muciniphila ST7; format: cell-based, Akkermansia muciniphila
Description: as §5, §6

L. crispatus ST100 = experiment: Antibiotic resistance by broth solution method (MIC), L. crispatus ST100; format: cell-based, Lactobacillus crispatus
Description: as §5, §6

Compound	zone of inhibition (FP-ST38) [cm]	zone of inhibition (LC-ST100) [cm]	zone of inhibition (AM-ST7) [cm]	further results
CO/N=C(\C(=O)N[C@@H]1C(=O)N2C(C(=O)O)=C(CSc3nc(=O)c(=O)[nH]n3C)CS[C@H]12)c1csc(N)n1 [ceftriaxone]	2	3.5		
C[C@@H]1C[C@@H]([C@H](O)CC2CC(=O)NC(=O)C2)C(=O)[C@@H](C)C1 [Cycloheximide]				Diameter inhibition zone [mm] Pos. Control (Ca. glabrata DSM 11226): 11 mm and 10 mm and 9 mm; Diameter inhibition zone [mm] Pos. Control (Rho. glutinis DSM 70821): 14 mm and 13 mm
CC[C@H]1OC(=O)[C@H](C)[C@@H](O[C@H]2C[C@@](C)(OC)[C@@H](O)[C@H](C)O2)[C@H](C)[C@@H](O[C@@H]2O[C@H](C)C[C@H](N(C)C)[C@H]2O)[C@](C)(O)C[C@@H](C)CN(C)[C@H](C)[C@@H](O)[C@]1(C)O [azithromycin]		3.5	2.5	antibiotic susceptibility (F. prausnitzii ST38): susceptible; antibiotic susceptibility (A. muciniphila ST7): susceptible; antibiotic susceptibility (L. crispatus ST100): susceptible
CN[C@H](CC(C)C)C(=O)N[C@H]1C(=O)N[C@@H](CC(N)=O)C(=O)N[C@H]2C(=O)N[C@H]3C(=O)N[C@H](C(=O)N[C@H](C(=O)O)c4cc(O)cc(O)c4-c4cc3ccc4O)[C@H](O)c3ccc(c(Cl)c3)Oc3cc2cc(c3O[C@@H]2O[C@H](CO)[C@@H](O)[C@H](O)[C@H]2O[C@H]2C[C@](C)(N)[C@H](O)[C@H](C)O2)Oc2ccc(cc2Cl)[C@H]1O [vancomycin]		3.8	1.5	antibiotic susceptibility (F. prausnitzii ST38): susceptible; antibiotic susceptibility (L. crispatus ST100): susceptible
CC1(C)S[C@@H]2[C@H](NC(=O)[C@H](N)c3ccccc3)C(=O)N2[C@H]1C(=O)O [ampicillin]		4		antibiotic susceptibility (L. crispatus ST100): susceptible
C[C@H]1COc2c(N3CCN(C)CC3)c(F)cc3c(=O)c(C(=O)O)cn1c23 [levofloxacin]			1.2	
CCC[C@@H]1C[C@@H](C(=O)N[C@@H]([C@H]2O[C@H](SC)[C@H](O)[C@@H](O)[C@H]2O)[C@H](C)Cl)N(C)C1 [clindamycin]		4		
amoxicillin/clavulanic acid	2.5	5	4	
CC[C@H](C)[C@H](N)C1=N[C@H](C(=O)N[C@@H](CC(C)C)C(=O)N[C@H](CCC(=O)O)C(=O)N[C@H](C(=O)N[C@H]2CCCCNC(=O)[C@H](CC(N)=O)NC(=O)[C@@H](CC(=O)O)NC(=O)[C@H](Cc3cnc[nH]3)NC(=O)[C@@H](Cc3ccccc3)NC(=O)[C@H]([C@@H](C)CC)NC(=O)[C@@H](CCCN)NC2=O)[C@@H](C)CC)CS1 [bacitracin] ({Ileψ(thiazoline)Cys}-L[dE]IK[dOrn]I[dF]H[dD]N; lactam 4-C)	3.4	2.5	2	
NCC[C@H](O)C(=O)N[C@@H]1C[C@H](N)[C@@H](O[C@H]2O[C@H](CN)[C@@H](O)[C@H](O)[C@H]2O)[C@H](O)[C@H]1O[C@H]1O[C@H](CO)[C@@H](O)[C@H](N)[C@H]1O [amikacin]	2			antibiotic susceptibility (F. prausnitzii ST38): susceptible
CN(C)[C@@H]1C(O)=C(C(N)=O)C(=O)[C@@]2(O)C(O)=C3C(=O)c4c(O)cccc4[C@@](C)(O)[C@H]3C[C@@H]12 [tetracycline]	5	4.2	3	
